Experimental data from US6743425B2, “Therapeutic agents for achondroplasia” (priority 2001, dated 2004).

What was measured:
[1] = tested on: p44 and p42 MAP kinases (ERK1/2); assay: phosphorylation of ERK1/2 after basic FGF stimulation, Western blotting in ATDC cells; assay type: cell-based, mouse; settings: pretreatment for 1 h, 10^-7 CNP
Protocol: (§1) Cells of the mouse chondrocyte strain ATDC (J. Bone. Miner. Res., 12, 1174-1188, 1997; supplied from Assistant Professor Shukunami and Professor […] of the Institute for Frontier Medical Sciences, Kyoto University) were pretreated with 1-10 ng/ml basic FGF (SIGMA), a ligand for FGFR3. Then, these cells were stimulated with 10^-9-10^-7 M CNP and assayed for intracellular cGMP production by the RIA method (cyclic GMP Assay Kit available from YAMASA CORPORATION). Phosphorylation of p44 and p42 MAP kinases (ERK1/2) and expression of […] and p44 MAP kinase (ERK1) after basic FGF stimulation were also assayed by Western blotting using phosphorylated MAP-K antibodies and MAP-K antibodies (both available from Cell Signaling Technology; MAP: mitogen-activated protein).

tibiae from fetal mice = settings: organ cultures of tibiae from fetal mice; J. Biol. Chem. 273: 11695-11700, 1998; cited from earlier work
[2] = tested on: organ cultures of tibiae from fetal mice, cultured chondrocytes and cultured osteoblasts; settings: cited from earlier work
[3] = tested on: tibiae from the fetus of CNP-transgenic mice or their nontransgenic littermates; assay: organ culture of embryonic tibiae (4-d culture; longitudinal length and histology); assay type: cell-based, mouse; settings: cultured tibiae from nontransgenic littermates in the presence of 10^-7 M CNP
Protocol: Tibiae from the fetus of CNP-transgenic mice or their nontransgenic littermates were dissected out on 16.5-d post coitus and cultured for 4 days in suspension in an artificial medium. To inhibit the effect of the endogenous CNP, the tibial culture was performed with a non-peptide NP receptor antagonist, HS-142-1 (Komatsu et al., Circ Res. 78:606-614, 1996) at a concentration of 50 mg/L in the medium. At the end of the culture period, the cultured tibiae were measured for their longitudinal length, and fixed and embedded for histological analysis. Sections of 5 μm in thickness were cut from the embedded specimen and stained with Alcian blue (pH 2.5) and counterstained with hematoxylin/eosin. The cGMP contents of the cultured tibiae were measured by RIA at the end of the 4-d culture period. Glycosaminoglycan synthesis of the cultured tibiae was assessed by measuring ^35SO4 incorporation (Mericq et al., Pediatr Res 47: 189-193, 2000). Namely, cultured tibiae of the CNP-transgenic mice and their nontransgenic littermates were labeled with 5 μCi/ml Na2^35SO4 (Amersham, specific activity 100 mCi/mmol) for 1 h. […] The precipitate was washed three times with 1 ml of 0.1% cetylpyridinium chloride (Sigma Chemical Co.)—0.2 M NaCl and then dissolved in 1 ml of 23 N formic acid, after which the ^35SO4 content was determined by a liquid scintillation counter.

[4] = tested on: mouse chondrocyte strain ATDC; assay: intracellular cGMP production by RIA in ATDC cells after basic FGF pretreatment and CNP stimulation; assay type: cell-based; settings: pretreatment with 1 ng/ml basic FGF for 1 h
Protocol: as §1

Row | Substance | phosphorylation of ERK1/2 with basic FGF [1] | longitudinal bone growth (tibiae from fetal mice) | potency in the production of cGMP compared with ANP and BNP [2] | elongation of the cartilagenous primordia with enlarged extracellular matrix and increased size of hypertrophic chondrocytes [3] | intracellular cGMP production after CNP stimulation [4]
1 | C-type natriuretic peptide [CNP] | significantly inhibited | significantly promotes | more potent than ANP and BNP | potent | –
2 | basic FGF: a ligand for FGFR3 (SIGMA) | – | – | – | – | 70 % of control
